Laboratory results published in US10822587B2, “T cell balance gene expression, compositions of matters and methods of use thereof” (The Broad Institute, Inc., priority 2013, dated 2020).
“Also recorded” adds a separate entry of the source.

Tests used:
[1] = biological target: T1, PROCR (Mus musculus, UniProt Q64695); experiment: Quantitative RT-PCR of pathogenic signature genes in Th17 cells differentiated in the presence of activated protein C; type: cell-based
T1 construct: endogenous in cells; host or cells: primary naïve CD4+ T cells (mouse spleen/lymph node) polarized to Th17 with TGF-β1 + IL-6
T1 sequence (Q64695 18-242): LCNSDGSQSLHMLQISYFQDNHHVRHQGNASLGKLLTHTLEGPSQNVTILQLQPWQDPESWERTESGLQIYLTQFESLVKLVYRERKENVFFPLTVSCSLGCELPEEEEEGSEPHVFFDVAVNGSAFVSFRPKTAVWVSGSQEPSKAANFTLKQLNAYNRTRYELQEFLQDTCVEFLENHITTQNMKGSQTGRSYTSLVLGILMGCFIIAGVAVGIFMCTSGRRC
Source text: FIG. 23A depicts quantitative RT-PCR analysis of mRNA expression of several pathogenic signature genes in Th17 cells differentiated with TGFβ1 and IL-6 in the presence of activated protein C (aPC) for 3 days in vitro. FIG. 23B depicts quantitative RT-PCR analysis of mRNA expression of several pathogenic signature genes in naïve CD4^+ T cells polarized under Th17 conditions, transduced with either GFP control retrovirus (Control RV) or PROCR-expressing retrovirus (PROCR RV) for 3 days. FIG. 23C depicts quantitative RT-PCR analysis of mRNA expression of several pathogenic signature genes in Th17 cells from EPCR δ/δmice and control mice differentiated with TGFβ1 and IL-6 for 3 days in vitro.
FIGS. 32A, 32B, 32C and 32D are a series of graphs depicting how PROCR and PD-1 expression affects Th17 pathogenicity. FIG. 32A depicts signature genes of pathogenic and non-pathogenic Th17 cells. Naïve CD4+ T cells were differentiated into non-pathogenic (TGFβ+IL-6) or pathogenic (TGFβ3+IL-6 or IL-β+IL-6) Th17 cells and PROCR expression was determined by quantitative PCR. FIG. 32B depicts how naïve WT or PROCRd/d CD4+ T cells were stimulated under Th17 polarizing conditions (TGFβ+IL-6) in the presence or absence of aPC. Quantitative expression of three pathogenic signature genes was determined on day 3. […] Mice were monitored for EAE. […]. […]

[2] = system: Th17 cells; experiment: IL-17 / IFN-γ production of Th17 cells differentiated with activated protein C (intracellular staining, ELISA); type: cell-based, mouse; details: aPC 300 nM, anti-CD3/anti-CD28, TGF-β+IL-6; flow cytometry day 3, ELISA day 3 and 5
Description: FIG. 20A depicts how naïve CD4+ T cells were differentiated into Th17 cells by anti-CD3/anti-CD28 stimulation in the presence of activated protein C (aPC, 300 nM), the ligand of PROCR. On day 3, cells were stimulated with PMA and Ionomycin for 4 hr, stained intracellularly for IFN-γ and IL-17 and analyzed by flow cytometry. FIG. 20B depicts IL-17 production from Th17 cells (TGF-β+IL-6) differentiated with or without activated protein C (aPC and Ctl, respectively) was assessed by ELISA on Day 3 and 5. FIG. 20C depicts how naïve CD4+ T cells were polarized under Th17 conditions (TGF-β+IL-6), transduced with either GFP control retrovirus (Ctl RV) or PROCR-expressing retrovirus (PROCR RV). Intracellular expression of IFN-γ and IL-17 in GFP+ cells were assessed by flow cytometry. FIG. 20D depicts how naïve CD4+ T cells from EPCR δ/δmice and control mice were polarized under Th17 conditions with TGF-β1 and IL-6. Intracellular expression of IFN-γ and IL-17 were assessed by flow cytometry. […]
Naïve T cells from knockout mice and their wild type controls were cultured as described above, their supernatants were collected after 72 h, and cytokine concentrations were determined by ELISA (antibodies for IL-17 and IL-10 from BD Bioscience) or by cytometric bead array for the indicated cytokines (BD Bioscience), according to the manufacturers' instructions (FIG. 5, FIG. 16).

activated protein C
mRNA expression of pathogenic signature genes ([1]; Th17 cells differentiated with TGFβ1 and IL-6 in the presence of aPC for 3 days in vitro): impairs some pathogenic signature genes in Th17 cells; also recorded: induces a downregulation of the pathogenic signature genes IL-3, CXCL3, CCL4 and Pdp; also recorded: decreased the expression of some of the genes identified as a part of the pathogenic signature of Th17 cells | expression of non-pathogenic signature genes ([1]; Th17 polarizing conditions (TGFβ+IL-6) in the presence or absence of aPC, day 3): induces some non-pathogenic signature genes | cytokine production (IL-17, IFN-γ) from Th17 cells [2]: not essential for cytokine production from Th17 cells
